Entries after “also recorded” stand apart in the source; their conditions may differ.
Legend:
endocannabinoid system = settings: in vivo; cited from earlier work
[1] = Forced degradation study of the active substance (HPLC assay area %, sample observations); format: physicochemical
Protocol: HPLC Conditions • Instrument: Agilent 1100/1200 • Column: YMC Triart Phenyl, 4.6×150 mm. 3 μm particle size (ex-YMC P.N.TPH12S03-1546PTH) • Mobile Phase: A—10 mM Ammonium acetate pH 6.0 • B—Acetonitrile • Flow Rate: 1.0 ml·min-1 • Injection Volume: 5 μl • Detection: UV @ 220 nm • Column Temp: 30° C. • Post Run: 4 minutes
• Diluent: Acetonitrile:deionised water (1:1) • Standard Solution: Make up a solution of 0.2 mg/ml. This is to be made up fresh prior to use at T=3 and T=7 days.
Accurately weigh […] of the active substance into a 100 mL volumetric flask and dissolve in 50 mL of diluent. Dilute the resulting solution to volume with diluent and mix well.
Table 1 below details the different study tests performed. All solution samples are prepared and stored in sealed vials and heated samples are cooled to ambient prior to sampling to prevent evaporation. Analysis took place on days 3 and 7 after stressing initiation for solutions described for Tests 1-6 and once exposure was complete for samples described in Tests 7-10. Due to the low levels of degradation observed at 7 days, Tests 3, 4 and 5 were heated to 80° C. for a further 4 days and analysed, and Test 6 was analysed after a further 6 days.
The photostability samples were exposed to a total of 1.92 million lux hours and an integrated near-UV energy of 374.6 Whm^−2.

SMILES: CCS(=O)(=O)Nc1ccc2c(c1)nc(C(C)(C)C)n2CC1CCC(F)(F)CC1 [Compound I, N-(2-(tert-butyl)-1-((4,4-difluorocyclohexyl)methyl)-1H-benzimidazol-5-yl)ethanesulfonamide]
- Appetite stimulation (endocannabinoid system): stimulate appetite in a dose-dependent manner
- CNS-psychoactive effects (endocannabinoid system): does not cause CNS-psychoactive effects
- Sample observations ([1]; Test 1 Control (solution, ambient temperature), over study period, listed as active substance): Clear colourless solution; also recorded: No change over study period
- Assay of active substance (area %) ([1]; Test 1 solution control, 0 days): 99.40 area %
- Assay of active substance (area %) ([1]; Test 1 solution control, 3 days): 99.42 area %
- Assay of active substance (area %) ([1]; Test 1 solution control, 7 days): 99.30 area %
- Assay of active substance (area %) ([1]; Test 1 solution control, 11 days): 99.39 area %
- Sample observations ([1]; Test 2 Solid state 100° C., over study period, listed as active substance): orange solid over study period.
- Assay of active substance (area %) ([1]; Test 2 solid state at 100° C., 3 days): 99.43 area %
- Assay of active substance (area %) ([1]; Test 2 solid state at 100° C., 7 days): 99.40 area %
- Sample observations ([1]; Test 3 Acid 60° C., over study period, listed as active substance): Clear colourless solution; also recorded: No change over study period
- Sample observations ([1]; Test 3 Acid (1M, ambient), over study period, listed as active substance): No change over study period; also recorded: Clear colourless solution
- Assay of active substance (area %) ([1]; Test 3 acid (1M) ambient temperature, 3 days): 99.40 area %
- Assay of active substance (area %) ([1]; Test 3 acid (1M) ambient temperature, 7 days): 99.41 area %
- Assay of active substance (area %) ([1]; Test 3 acid (1M) at 60° C. until day 7, 80° C. until day 11, 11 days): 98.87 area %
- Assay of active substance (area %) ([1]; Test 3 acid (1M) at 60° C., 3 days): 99.37 area %
- Assay of active substance (area %) ([1]; Test 3 acid (1M) at 60° C., 7 days): 99.35 area %
- Sample observations ([1]; Test 4 Base 40° C. (so in the source), over study period, listed as active substance): Clear colourless solution; also recorded: No change over study period
- Sample observations ([1]; Test 4 Base (0.5M, ambient), over study period, listed as active substance): Clear colourless solution; also recorded: No change over study period
- Assay of active substance (area %) ([1]; Test 4 base (0.5M) ambient temperature, 3 days): 99.40 area %
- Assay of active substance (area %) ([1]; Test 4 base (0.5M) ambient temperature, 7 days): 99.37 area %
- Assay of active substance (area %) ([1]; Test 4 base (0.5M) at 60° C. until day 7, 80° C. until day 11, 11 days): 99.16 area %
- Assay of active substance (area %) ([1]; Test 4 base (0.5M) at 60° C., 3 days): 99.34 area %
- Assay of active substance (area %) ([1]; Test 4 base (0.5M) at 60° C., 7 days): 99.32 area %
- Sample observations ([1]; Test 5 Heat 60° C. (solution), over study period, listed as active substance): Clear colourless solution; also recorded: No change over study period
- Assay of active substance (area %) ([1]; Test 5 solution at 60° C. until day 7, 80° C. until day 11, 11 days): 98.00 area %
- Assay of active substance (area %) ([1]; Test 5 solution at 60° C., 3 days): 99.13 area %
- Assay of active substance (area %) ([1]; Test 5 solution at 60° C., 7 days): 99.34 area %
- Sample observations ([1]; Test 6 Peroxide (1.5%), over study period, listed as active substance): Clear colourless solution; also recorded: No change over study period
- Assay of active substance (area %) ([1]; Test 6 peroxide (1.5%), 3 days): 98.50 area %
- Assay of active substance (area %) ([1]; Test 6 peroxide (1.5%), 7 days): 97.75 area %
- Assay of active substance (area %) ([1]; Test 6 peroxide (1.5%), 13 days): 96.58 area %
- Sample observations ([1]; Test 7 Photostability (Solution Control), listed as active substance): Clear colourless solution; also recorded: No change over study period
- Assay of active substance (area %) ([1]; Test 7 photocontrol solution): 99.40 area %
- Assay of active substance (area %) ([1]; Test 8 photo treated solution (1.92 million lux hours, 374.6 Whm^-2 near-UV)): 74.53 area %
- Sample observations ([1]; Test 9 Photostability (Solid Control)): Off white solid. No change over study period.
- Assay of active substance (area %) ([1]; Test 9 photocontrol solid): 99.40 area %
- Sample observations ([1]; Test 10 Photostability (Solid Treated), listed as active substance): orange solid over study period.
- Assay of active substance (area %) ([1]; Test 10 phototreated solid (1.92 million lux hours, 374.6 Whm^-2 near-UV)): 99.31 area %
- Forced degradation outcome ([1]; as a solution under photostability conditions): Major degradation
- Forced degradation outcome ([1]; peroxide conditions, 1M acid and 0.5M base extended to 80° C., solution heated to 80° C.): slight degradation
- Forced degradation outcome ([1]; solution at room temperature, solid at 100° C., 1M acid and 0.5M base at room temperature and 60° C., solution at 60° C., photostability as a solid): stable to degradation

Source: patent US20240024290A1, “PHARMACEUTICAL COMPOSITIONS COMPRISING CANNABINOID AGONIST” (ARTELO BIOSCIENCES LIMITED, priority 2020, published 2024)
